Among the data in patent US12473289B2, “Heterocyclic compounds as delta-5 desaturase inhibitors and methods of use” (Amgen Inc., priority 2019, dated 2025) are IC50 values, retold here.

Structures are written as SMILES. pIC50: −log10 of the molar value.

The target in this assay is Delta-5-Desaturase (D5D) (Homo sapiens (Human), UniProt O60427). Briefly: In vitro measurement of Delta-5-Desaturase inhibitory activity using DGLA-CoA and Arachidonyl-CoA mass spectrometric assays. Type of assay: biochemical. The following applies: membrane preparations of D5D-overexpressing HEK293 6E cells; averaged over at least two independent runs. A digest of the protocol:
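Membranes from D5D-overexpressing HEK293 6E cells (10 μg/mL final) in Tris pH 7.5 with MgCl2, octyl glucoside and TCEP were mixed 1:1 with substrate solution (0.01 mM DGLA, 0.25 mM NADH, 0.25 mM ATP, 0.05 mM CoA) for 1 h at ambient temperature. RapidFire SPE-MS/MS MRM; IC50 by 4-parameter fit, ≥2 runs.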

Sequence of Delta-5-Desaturase (D5D) (O60427 whole entry, species assumed): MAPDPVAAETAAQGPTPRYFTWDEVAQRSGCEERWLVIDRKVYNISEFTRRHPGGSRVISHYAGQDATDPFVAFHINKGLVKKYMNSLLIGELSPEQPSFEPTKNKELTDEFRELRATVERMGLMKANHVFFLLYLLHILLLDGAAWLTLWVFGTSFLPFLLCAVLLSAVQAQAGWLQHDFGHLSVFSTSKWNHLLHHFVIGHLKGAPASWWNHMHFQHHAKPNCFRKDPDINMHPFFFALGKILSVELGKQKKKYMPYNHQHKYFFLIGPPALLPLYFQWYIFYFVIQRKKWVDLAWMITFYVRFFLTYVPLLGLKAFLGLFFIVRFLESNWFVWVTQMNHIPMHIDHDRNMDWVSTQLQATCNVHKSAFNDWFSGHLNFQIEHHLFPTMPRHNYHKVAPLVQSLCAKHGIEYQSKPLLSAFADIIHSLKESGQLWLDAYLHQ

Compound `O=C(O)c1ccn2c(=O)c(-c3cnn(CC(F)(F)C(F)(F)F)c3)c(C(F)(F)F)nc2c1` [Example 1-21, 4-oxo-3-(1-(2,2,3,3,3-pentafluoropropyl)-1H-pyrazol-4-yl)-2-(trifluoromethyl)-4H-pyrido[1,2-a]pyrimidine-8-carboxylic acid] showed a negative logarithm of the IC50 (pIC50) of 5.47.

`Cc1cn2c(=O)c(-c3cnn(CC(F)(F)C(F)(F)F)c3)c(C(F)(F)F)nc2cn1` [Example 39-31, 7-methyl-3-[1-(2,2,3,3,3-pentafluoropropyl)-1H-pyrazol-4-yl]-2-(trifluoromethyl)-4H-pyrazino[1,2-a]pyrimidin-4-one] showed a negative-log IC50 (pIC50) of 7.55.

`COc1ccn2c(=O)c(-c3ccc(OC(F)(F)F)cc3)c(C(F)(F)F)nc2c1` [Example 1-49, 8-methoxy-3-(4-(trifluoromethoxy)phenyl)-2-(trifluoromethyl)-4H-pyrido[1,2-a]pyrimidin-4-one] gave a pIC50 of 8.27. This pIC50 lies 0.72 log units higher than the previous one. Regarding `COc1ccn2c(=O)c(-c3cnn(CC(F)(F)C(F)(F)F)c3)c(C(F)(F)F)nc2c1F` [Example 39-4, 9-fluoro-8-methoxy-3-[1-(2,2,3,3,3-pentafluoropropyl)-1H-pyrazol-4-yl]-2-(trifluoromethyl)-4H-pyrido[1,2-a]pyrimidin-4-one], the pIC50 is 7.33. The figure for `O=c1c(-c2cnn(CC(F)(F)C(F)(F)F)c2)c(C(F)(F)F)nc2cc(O)cnn12` [Example 44, 8-Hydroxy-3-[1-(2,2,3,3,3-pentafluoropropyl)-1H-pyrazol-4-yl]-2-(trifluoromethyl)-4H-pyrimido[1,2-b]pyridazin-4-one] is 5.74; for `COc1ccn2c(=O)c(-c3cnc(OCC(F)(F)C(F)(F)F)nc3)c(C(F)(F)F)nc2c1` [Example 39-12, 8-methoxy-3-[2-(2,2,3,3,3-pentafluoropropoxy)pyrimidin-5-yl]-2-(trifluoromethyl)-4H-pyrido[1,2-a]pyrimidin-4-one] it is 7.27.

The compound `COc1ccn2c(=O)c(-c3ncc(CCC(F)(F)F)s3)c(C(F)(F)F)nc2c1` [Example 58, 8-Methoxy-2-(trifluoromethyl)-3-[5-(3,3,3-trifluoropropyl)-1,3-thiazol-2-yl]-4H-pyrido[1,2-a]pyrimidin-4-one] gave a negative-log IC50 (pIC50) of 6.23. This pIC50 lies 1.04 log units lower than the previous one. Then `COc1ccn2c(=O)c(-c3ccc(OC(C)C#N)cc3)c(C(F)(F)F)nc2c1` (stereo not shown) [Example 8-4, 2-(4-(8-methoxy-4-oxo-2-(trifluoromethyl)-4H-pyrido[1,2-a]pyrimidin-3-yl)phenoxy)propanenitrile], with 7.79.

`O=c1c(-c2ccc(OCC(F)(F)F)cc2)c(C(F)(F)F)nc2cc(Cl)ccn12` [Example 2-7, 8-chloro-3-(4-(2,2,2-trifluoroethoxy)phenyl)-2-(trifluoromethyl)-4H-pyrido[1,2-a]pyrimidin-4-one] had a pIC50 of 8.39. In the case of `CC1(c2ccn3c(=O)c(-c4ccc(OCC(F)(F)F)cc4)c(C(F)(F)F)nc3c2)CCO1` (stereo not shown) [Example 27, 8-(2-Methyl-2-oxetanyl)-3-(4-(2,2,2-trifluoroethoxy)phenyl)-2-(trifluoromethyl)-4H-pyrido[1,2-a]pyrimidin-4-one], the negative logarithm of the IC50 (pIC50) is 6.26. Regarding `COc1ccn2c(=O)c(-c3ccc(CCC(F)(F)F)cc3)c(C(F)(F)F)nc2c1` [Example 7-5, 8-methoxy-2-(trifluoromethyl)-3-(4-(3,3,3-trifluoropropyl)phenyl)-4H-pyrido[1,2-a]pyrimidin-4-one], the negative-log IC50 (pIC50) is 7.92.

`COc1ccn2c(=O)c(-c3ccn(-c4ccccc4)n3)c(C(F)(F)F)nc2c1` [Example 1-3, 8-methoxy-3-(1-phenyl-1H-pyrazol-3-yl)-2-(trifluoromethyl)-4H-pyrido[1,2-a]pyrimidin-4-one] showed a pIC50 of 6.43. Consider `COc1ccn2c(=O)c(-c3ccc(OCC#N)cc3)c(C(F)(F)F)nc2c1` [Example 21, (4-(8-Methoxy-4-oxo-2-(trifluoromethyl)-4H-pyrido[1,2-a]pyrimidin-3-yl)phenoxy)acetonitrile], for which the pIC50 was 8.24. Then `Cn1c(=O)ccn2c(=O)c(-c3cnn(CC(F)(F)C(F)(F)F)c3)c(C(F)(F)F)nc12` [Example 67, 1-Methyl-7-[1-(2,2,3,3,3-pentafluoropropyl)-1H-pyrazol-4-yl]-8-(trifluoromethyl)-1H,2H,6H-[1,3]diazino[1,2-a]pyrimidine-2,6-dione], with 7.49; and `CNC(=O)c1ccn2c(=O)c(-c3cnn(CC(F)(F)C(F)(F)F)c3)c(C(F)(F)F)nc2c1` [Example 12-5, N-methyl-4-oxo-3-(1-(2,2,3,3,3-pentafluoropropyl)-1H-pyrazol-4-yl)-2-(trifluoromethyl)-4H-pyrido[1,2-a]pyrimidine-8-carboxamide], with 6.50; and `Cc1cc2nc(C(F)(F)F)c(-c3cnn(CCC(F)(F)F)c3)c(=O)n2nc1C` [Example 39-47, 7,8-dimethyl-2-(trifluoromethyl)-3-[1-(3,3,3-trifluoropropyl)-1H-pyrazol-4-yl]-4H-pyrimido[1,2-b]pyridazin-4-one], with 7.18. In turn, `COc1cnc2nc(C(F)(F)F)c(-c3cnn(CC(F)(F)C(F)(F)F)c3)c(=O)n2c1` [Example 40-1, 7-Methoxy-3-[1-(2,2,3,3,3-pentafluoropropyl)-1H-pyrazol-4-yl]-2-(trifluoromethyl)-4H-[1,3]diazino[1,2-a]pyrimidin-4-one] had a pIC50 of 6.82. This pIC50 is 0.36 log units lower than that of the compound before.

`O=c1c(-c2ccc(OCC(F)(F)F)c(Cl)c2)c(C(F)(F)F)nc2ccccn12` [Example 5-2, 3-(3-chloro-4-(2,2,2-trifluoroethoxy)phenyl)-2-(trifluoromethyl)-4H-pyrido[1,2-a]pyrimidin-4-one] gave a pIC50 of 6.80. This pIC50 and that of the compound before are within 0.2 log units of each other. The figure for `COc1cc2nc(C(F)(F)F)c(-c3cnn(CCC(F)(F)F)c3)c(=O)n2cc1Cl` [Example 39-2, 7-chloro-8-methoxy-2-(trifluoromethyl)-3-[1-(3,3,3-trifluoropropyl)-1H-pyrazol-4-yl]-4H-pyrido[1,2-a]pyrimidin-4-one] is 6.95; for `O=c1c(-c2cnn(CC(F)(F)C(F)(F)F)c2)c(C(F)(F)F)nc2cc(N3CCC3)ccn12` [Example 1-88, 8-(1-azetidinyl)-3-(1-(2,2,3,3,3-pentafluoropropyl)-1H-pyrazol-4-yl)-2-(trifluoromethyl)-4H-pyrido[1,2-a]pyrimidin-4-one] it is 5.63; for `C=Cc1ccn2c(=O)c(-c3ccc(OCC(F)(F)F)cc3)c(C(F)(F)F)nc2c1` [Example 2-8, 8-ethenyl-3-(4-(2,2,2-trifluoroethoxy)phenyl)-2-(trifluoromethyl)-4H-pyrido[1,2-a]pyrimidin-4-one] it is 7.60. `COc1ccn2c(=O)c(-c3cnn(CCCC(F)(F)F)c3)c(C(F)(F)F)nc2n1` [Example 1-38, 8-methoxy-3-(1-(4,4,4-trifluorobutyl)-1H-pyrazol-4-yl)-2-(trifluoromethyl)-4H-pyrimido[1,2-a]pyrimidin-4-one] had a pIC50 of 6.74.

On to `O=c1c(-c2cnn(CCC(F)(F)F)c2)c(C(F)(F)F)nc2ccc(Cl)cn12` [Example 39-17, 7-chloro-2-(trifluoromethyl)-3-[1-(3,3,3-trifluoropropyl)-1H-pyrazol-4-yl]-4H-pyrido[1,2-a]pyrimidin-4-one], for which the pIC50 is 8.62. This pIC50 lies 1.88 log units higher than the previous one. `O=c1c(-c2cnn(CC(F)(F)C(F)(F)F)c2)c(C(F)(F)F)nc2cc(Cl)ccn12` [Example 2-6, 8-chloro-3-(1-(2,2,3,3,3-pentafluoropropyl)-1H-pyrazol-4-yl)-2-(trifluoromethyl)-4H-pyrido[1,2-a]pyrimidin-4-one] had a negative logarithm of the IC50 (pIC50) of 8.09. This pIC50 is 0.53 log units lower than that of the compound before. Compound `CC(C)(O)c1ccn2c(=O)c(-c3cnn(CC(F)(F)C(F)(F)F)c3)c(C(F)(F)F)nc2c1` [Example 39-7, 8-(2-hydroxypropan-2-yl)-3-[1-(2,2,3,3,3-pentafluoropropyl)-1H-pyrazol-4-yl]-2-(trifluoromethyl)-4H-pyrido[1,2-a]pyrimidin-4-one] showed a pIC50 of 5.84. This pIC50 is 2.25 log units lower than that of the compound before. In the case of `Cc1cnn2c(=O)c(-c3cnn(CC4CC4(F)F)c3)c(C(F)(F)F)nc2c1` (stereo not shown) [Example 39-53, 3-{1-[(2,2-difluorocyclopropyl)methyl]-1H-pyrazol-4-yl}-8-methyl-2-(trifluoromethyl)-4H-pyrimido[1,2-b]pyridazin-4-one], the negative logarithm of the IC50 (pIC50) is 6.43.

`[2H]C([2H])([2H])Oc1ccn2c(=O)c(-c3cnn(CCCC(F)(F)F)c3)c(C(F)(F)F)nc2c1` [Example 1-63, 8-(methyloxy-d3)-3-(1-(4,4,4-trifluorobutyl)-1H-pyrazol-4-yl)-2-(trifluoromethyl)-4H-pyrido[1,2-a]pyrimidin-4-one] showed a negative logarithm of the IC50 (pIC50) of 7.55. This pIC50 lies 1.12 log units higher than the previous one.

Take `COc1ccn2c(=O)c(-c3ccc(OCC(F)(F)C(F)F)cc3)c(C(F)(F)F)nc2c1` [Example 9-1, 8-Methoxy-3-(4-(2,2,3,3-tetrafluoropropoxy)phenyl)-2-(trifluoromethyl)-4H-pyrido[1,2-a]pyrimidin-4-one]: the negative-log IC50 (pIC50) was 7.95. Compound `C[C@@H](O)c1ccn2c(=O)c(-c3cnn(CC(F)(F)C(F)(F)F)c3)c(C(F)(F)F)nc2c1` [Example 31-1, 8-((1R)-1-hydroxyethyl)-3-(1-(2,2,3,3,3-pentafluoropropyl)-1H-pyrazol-4-yl)-2-(trifluoromethyl)-4H-pyrido[1,2-a]pyrimidin-4-one] gave a pIC50 of 6.79.

The compound `CCc1nc2cc(OC)ccn2c(=O)c1-c1cnn(CC(F)(F)C(F)(F)F)c1` [Example 3-1, 2-Ethyl-8-methoxy-3-(1-(2,2,3,3,3-pentafluoropropyl)-1H-pyrazol-4-yl)-4H-pyrido[1,2-a]pyrimidin-4-one] had a negative logarithm of the IC50 (pIC50) of 7.27. The figure for `N#CCc1ccn2c(=O)c(-c3cnn(CC(F)(F)C(F)(F)F)c3)c(C(F)(F)F)nc2c1` [Example 16-1, (4-Oxo-3-(1-(2,2,3,3,3-pentafluoropropyl)-1H-pyrazol-4-yl)-2-(trifluoromethyl)-4H-pyrido[1,2-a]pyrimidin-8-yl)acetonitrile] is 7.28.
